The values below come from patent US20050197350A1, “Novel quinoline, tetrahydroquinazoline, and pyrimidine derivatives and methods of treatment related to the use thereof” (TAISHO PHARMACEUTICAL CO., LTD., priority 2003, published 2005).

This assay concerns MCH receptors. Description: MCH receptor activity class (method not given).
Where [1] appears, read: class by percent of control at 10^-7 M or IC50.
Setting [2] is: class by percent of control at 10^−7 M or IC50.
[3] abbreviates: class 1-3 by percent of control at 10^-7 M or IC50.
[4] abbreviates: MCH receptor activity class 1-3 (percent of control at 10^-7 M or IC50).

Like-named read-outs stand apart in the source and are kept apart here.

`CN(C)c1ccnc(N[C@H]2CC[C@@H](NC(=O)c3cccc(C#N)c3)CC2)n1` [compound 247]: the class under setting [1] was 3 (Class 3 The value of percent of control at 10^−7 M was more than 60% or the value of IC50 was more than 200 nM.).
As to `Cc1cc(C(=O)N[C@H]2CC[C@@H](Nc3nc(C)c(C)c(N(C)C)n3)CC2)ccc1F` [compound 2854, N-(cis-4-{[4-(dimethylamino)-5,6-dimethylpyrimidin-2-yl]amino}cyclohexyl)-4-fluoro-3-methylbenzamide], under setting [2], the class is reported as 1 (Class 1: The value of percent of control at 10^−7 M was less than 40% or the value of IC50 was less than 50 nM.).
`CN(C)c1nc(N[C@H]2CC[C@@H](NC(=O)Cc3ccc(Cl)c(Cl)c3)CC2)nc2c1CCCC2` [compound 975]: the class under setting [1] is 1 (Class 1: The value of percent of control at 10^−7 M was less than 40% or the value of IC50 was less than 50 nM.).
With `CN(C)c1nc(N[C@H]2CC[C@@H](NC(=O)/C=C/c3ccc([N+](=O)[O-])cc3)CC2)nc2c1CCCC2` [compound 515], under setting [3], the class is 3 (Class 3 The value of percent of control at 10^−7 M was more than 60% or the value of IC50 was more than 200 nM.).
As for `Cc1cc(N(C)C)nc(N[C@H]2CC[C@@H](NC(=O)c3ccc(F)c(F)c3)CC2)n1` [Example 2568, N-(cis-4-{[4-(dimethylamino)-6-methylpyrimidin-2-yl]amino}cyclohexyl)-3,4-difluorobenzamide], the class came to 1.
As for `CC(C)c1ccccc1NC(=O)NC[C@H]1CC[C@@H](Nc2cc(N(C)C)c3ccccc3n2)CC1` [compound 2380], the class under setting [4] is given as 3 (Class 3 The value of percent of control at 10^−7 M was more than 60% or the value of IC50 was more than 200 nM.).
In the case of `Cc1cnc(NC[C@H]2CC[C@@H](NC(=O)c3cccc(OC(F)(F)F)c3)CC2)nc1N(C)C` [compound 2721], under setting [2], the class is 3 (Class 3 The value of percent of control at 10^−7 M was more than 60% or the value of IC50 was more than 200 nM.).
With `CCc1ccccc1NC(=S)N[C@H]1CC[C@@H](Nc2cc(N(C)C)c3ccccc3n2)CC1` [compound 2178], the class under setting [1] is 3 (Class 3 The value of percent of control at 10^−7 M was more than 60% or the value of IC50 was more than 200 nM.).
Still for that read-out and setting: with `COc1cc(C(=O)N[C@H]2CC[C@@H](Nc3nccc(N(C)C)n3)CC2)cc(OC)c1OC` [compound 333] the figure was 3 (Class 3 The value of percent of control at 10^−7 M was more than 60% or the value of IC50 was more than 200 nM.).
On to `CN(C)c1nc(N[C@H]2CC[C@@H](CNC(=O)c3ccc(F)cc3)CC2)nc2c1CCCC2` [compound 599], for which the class under setting [3] is 3 (Class 3 The value of percent of control at 10^−7 M was more than 60% or the value of IC50 was more than 200 nM.).
Turning to `CN(C)c1ccnc(N[C@H]2CC[C@@H](NC(=O)c3cccc(Oc4ccccc4)c3)CC2)n1` [compound 871], under setting [1], the class is 2 (Class 2: The value of percent of control at 10^−7 M was from 40% to 60% or the value of IC′50 was from 50 nM to 200 nM.).
The same measure, in the same setting: with `CN(C)c1cc(N[C@H]2CC[C@@H](NC(=S)Nc3ccc(Br)cc3)CC2)nc2ccccc12` [compound 2167] the figure was 3 (Class 3 The value of percent of control at 10^−7 M was more than 60% or the value of IC50 was more than 200 nM.).
`CN(C)c1nc(NC2CCC(CNC(=O)OCc3ccc([N+](=O)[O-])cc3)CC2)nc2c1CCCC2` (centres unmarked) [compound 1608]: the class (activity class 1-3: percent of control at 10^-7 M or IC50) was 3 (Class 3 The value of percent of control at 10^−7 M was more than 60% or the value of IC50 was more than 200 nM.).
Turning to `CCc1cccc(C)c1NC(=O)NC[C@H]1CC[C@@H](Nc2nccc(N(C)C)n2)CC1` [compound 2408, N-[(cis-4-{[4-(dimethylamino)pyrimidin-2-yl]amino}cyclohexyl)methyl]-N′-(2-ethyl-6-methylphenyl)urea], the class under setting [4] is 1 (Class 1: The value of percent of control at 10^−7 M was less than 40% or the value of IC50 was less than 50 nM.).
